Source: patent US20230406860A1, “HETEROCYCLIC SPIRO COMPOUNDS AND METHODS OF USE” (AMGEN INC., priority 2020, published 2023)
Where two headings read alike, the source gives them in different places.

Key:
[1] = biological target: GDP-bound KRAS protein (aa 1-169), containing both G12C and C118A amino acid substitutions (Homo sapiens, UniProt P01116, C118A/G12C); experiment: Coupled nucleotide exchange assay (SOS-mediated, AlphaScreen); format: biochemical
Method: Coupled Nucleotide Exchange Assay:
For all subsequent steps, DTT was added to the reaction buffer at a final concentration of 1 mM. […] The assay plates were then read on a plate reader measuring luminescence signal. Signal intensity of compound-containing wells were normalized to DMSO control, and data were analyzed using a 4-parameter logistic model to calculate IC50 values.

[2] = tested on: MIA PaCa-2 (human pancreatic carcinoma) cells; experiment: Cell viability assay (CellTiter-Glo), MIA PaCa-2; format: cell-based; conditions: 72 h
Method: (§1) MIA PaCa-2 (human pancreatic carcinoma; ATCC CRL-1420) or A549 (human lung carcinoma; ATCC CCL-185) cells were cultured in RPMI 1640 medium containing 10% fetal bovine serum and 1× penicillin/streptomycin/L-glutamine. Cells were seeded in 384-well plates at a density of 1.67E+04 cells/mL and incubated at 37° C., 5% CO2, overnight. Serially-diluted compound or DMSO was added to the cells, and plates were incubated at 37° C., 5% CO2 for 72 h. Cell viability was measured using a CellTiter-Glo® Luminescent Cell Viability Assay kit (Promega) according to the manufacturer's protocol. The luminescence signal of treated samples was normalized to DMSO control, and data were analyzed using a 4-parameter logistic model to calculate IC50 values.

[3] = tested on: A549 (human lung carcinoma) cells; experiment: Cell viability assay (CellTiter-Glo), A549; format: cell-based; conditions: 72 h
Method: as §1

[4] = 2 h compound pre-incubation, read-out: Avg 2 h Coupled exchange IC50

Chain of GDP-bound KRAS protein (aa 1-169), containing both G12C and C118A amino acid substitutions (P01116 1-169 isoform P01116-2 G12C/C118A): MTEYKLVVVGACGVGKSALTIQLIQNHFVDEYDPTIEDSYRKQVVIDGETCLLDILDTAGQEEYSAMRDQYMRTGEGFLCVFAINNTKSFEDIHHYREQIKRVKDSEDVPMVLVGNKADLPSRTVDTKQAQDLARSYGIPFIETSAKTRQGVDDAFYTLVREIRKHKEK

Row | SMILES | IC50 [1, 4] [nM] | IC50 [2] [nM] | IC50 [3] [nM] | IC50 ([1]; 20 h compound pre-incubation (values marked * in Table 6), read-out: Avg 20 h Coupled exchange IC50) [nM]
1 | C=CC(=O)N1CC2(CCN(c3nc(N[C@H](CC(=O)NC)CC(C)C)c4c(n3)[C@@H](C)CCC4)C2)C1 [Example 1-15, (3S)-N,5-dimethyl-3-(((8S)-8-methyl-2-(2-(2-propenoyl)-2,6-diazaspiro[3.4]octan-6-yl)-5,6,7,8-tetrahydro-4-quinazolinyl)amino)hexanamide] | 4420 | 2260 | > 5000 | 
2 | C=CC(=O)N1CC2(CCN(c3nc(N[C@H](CC(=O)NC)CC(C)C)c4ccn(C)c4n3)C2)C1 [Example 1-16, (3S)-N,5-dimethyl-3-((7-methyl-2-(2-(2-propenoyl)-2,6-diazaspiro[3.4]octan-6-yl)-7H-pyrrolo[2,3-d]pyrimidin-4-yl)amino)hexanamide] |  | 4600 | > 25000 | 918
3 | C=CC(=O)N1CC2(CCN(c3nc(N[C@H](CC(=O)NC)CC(C)C)c4ncn(C)c4n3)C2)C1 [Example 1-17, (3S)-N,5-dimethyl-3-((9-methyl-2-(2-(2-propenoyl)-2,6-diazaspiro[3.4]octan-6-yl)-9H-purin-6-yl)amino)hexanamide] | 8790 | 2460 | > 25000 | 
4 | C=CC(=O)N1CC2(C1)CN(c1nc(N[C@H](CC(=O)NC)CC(C)C)c3ccccc3n1)CC2(F)F [Example 1-18, (3S)-3-((2-(8,8-difluoro-2-(2-propenoyl)-2,6-diazaspiro[3.4]octan-6-yl)-4-quinazolinyl)amino)-N,5-dimethylhexanamide] | 334 | 971 | 6250 | 
5 | C=CC(=O)N1CC2(CCN(c3nc4c(c(N[C@H](Cc5nnc[nH]5)CC(C)C)n3)CCCC4)C2)C1 [Example 1-19, 1-(6-(4-(((2S)-4-methyl-1-(4H-1,2,4-triazol-3-yl)-2-pentanyl)amino)-5,6,7,8-tetrahydro-2-quinazolinyl)-2,6-diazaspiro[3.4]octan-2-yl)-2-propen-1-one] | 4160 | > 5000 | > 5000 | 
6 | C=CC(=O)N1CC2(CCN(c3nc(N[C@H](CC(=O)NC)CC(C)C)c4ccc(C(C)C)cc4n3)C2)C1 [Example 1-20, (3S)-N,5-dimethyl-3-((7-(2-propanyl)-2-(2-(2-propenoyl)-2,6-diazaspiro[3.4]octan-6-yl)-4-quinazolinyl)amino)hexanamide] | 84 | 75 | 21600 | 
7 | C=CC(=O)N1CC2(CCN(c3nc4c(c(N[C@H](Cc5nnc(C)o5)CC(C)C)n3)CCCC4)C2)C1 [Example 1-22, 1-(6-(4-(((2S)-4-methyl-1-(5-methyl-1,3,4-oxadiazol-2-yl)-2-pentanyl)amino)-5,6,7,8-tetrahydro-2-quinazolinyl)-2,6-diazaspiro[3.4]octan-2-yl)-2-propen-1-one] | 830 | 279 | > 25000 | 
8 | C=CC(=O)N1CC2(CCN(c3nc4c(c(N[C@H](Cc5ncc[nH]5)CC(C)C)n3)CCCC4)C2)C1 [Example 1-23, 1-(6-(4-(((2S)-1-(1H-imidazol-2-yl)-4-methyl-2-pentanyl)amino)-5,6,7,8-tetrahydro-2-quinazolinyl)-2,6-diazaspiro[3.4]octan-2-yl)-2-propen-1-one] | 1160 | 2830 | > 5000 | 
9 | C=CC(=O)N1CC2(CCN(c3nc(N[C@H](CC(=O)NC)CC(C)C)c4ccc(C)cc4n3)C2)C1 [Example 1-25, (3S)-N,5-dimethyl-3-((7-methyl-2-(2-(2-propenoyl)-2,6-diazaspiro[3.4]octan-6-yl)-4-quinazolinyl)amino)hexanamide] | 339 | 921 | > 5000 | 
10 | C=CC(=O)N1CC2(CCN(c3nc(N[C@H](CC(=O)NC)CC(C)C)c4ccc(C#N)cc4n3)C2)C1 [Example 1-26, (3S)-3-((7-cyano-2-(2-(2-propenoyl)-2,6-diazaspiro[3.4]octan-6-yl)-4-quinazolinyl)amino)-N,5-dimethylhexanamide] | 180 | 185 | > 25000 | 
